In paper PMC5063977 (The Journal of Biological Chemistry, 2016):

Tested on: RAMP-CLR complexes (RAMP1, RAMP2, RAMP3)
Experiment: (Ca^2+)i mobilization with inhibitor pretreatment, HEK-293 cells, all RAMP-CLR complexes
Type: cell-based, human
Procedure: FIGURE 8. CLR in combination with each RAMP generates receptors that mobilize (Ca^2+)i release when expressed in HEK-293 cells. (Ca^2+)i mobilization was determined from HEK-293 cells transiently transfected with CLR and RAMP1 (n = 5) (A), RAMP2 (n = 5) (B), and RAMP3 (n = 5) (C). […] Data are expressed as percentage of the maximal (Ca^2+)i release as determined using 10 μM ionomycin. To determine the contribution made by different G proteins to the (Ca^2+)i response, cells were preincubated with either PTX (to inhibit Gαi) or YM-254890 (a selective Gαq inhibitor). All values are means ± S.E. of n individual data sets.
HEK-293 cells, provided by Dr. Jügen Müller (University of Aston), were cultured in DMEM supplemented with 10% heat-inactivated FBS and kept at 37 °C in a humidified 95% air, 5% CO2 incubator. HEK-293S cells (a gift from AstraZeneca) were cultured in DMEM supplemented with 8% heat-inactivated FBS and kept at 37 °C in a humidified 95% air, 5% CO2 incubator. HEK-293 cells were transfected with FuGENE 6 (Roche Applied Science) in accordance with the manufacturer's instructions using a 1:3 (w:v) DNA:FuGENE ratio and a 1:1 ratio of RAMP to CLR. HEK-293S cells were seeded into 96-well poly-D-lysine-coated plates at a density of 15,000 cells/well (determined using a Countess^TM cell counter, Invitrogen) 1 day prior to transfection. HEK-293S cells were transiently transfected as described previously ([38]) using a 1:1 ratio of RAMP to CLR. The transfected cell lines were grown for 24–48 h prior to assaying.
Transfected HEK-293 cells were grown to confluence in black, clear bottomed, 96-well plates. […] Ligands were added robotically using a Mithras LB 940 multimode microplate reader in the range of 10 pM to 1 μM, and fluorescence was determined immediately post-injection with an excitation wavelength set to 485 nm and an emission wavelength set to 535 nm. […] Peak magnitude was calculated using five-point smoothing followed by correction against background fluorescence. […]

Substance | effect of PTX on calcium released in response to the three ligands (HEK-293, any RAMP-CLR complex) | effect of YM-254890 on (Ca^2+)i mobilization by AM and AM2 (100 nM YM-254890, 30 min pretreatment, HEK-293, all RAMP-CLR complexes) | effect of YM-254890 on response to CGRP (100 nM YM-254890, 30 min pretreatment, HEK-293, all three RAMP-CLR complexes)
pertussis toxin [PTX] | no effect | – | –
YM-254890 | – | abolish all (Ca^2+)i mobilization | considerably attenuated
